Reference: PubChem BioAssay (NCI)
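Five compound concentrations were applied to cells in 96-well plates for 48 hours; endpoints were derived by simple linear interpolation of the resulting dose-response curve. GI50 marks 50% less growth. Definition used: TGI = concentration required for complete inhibition of growth.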

Columns and labels:
Assay in all cases: NCI-60 cell line screen, 48 h
HCT-15 colon = test system: HCT-15 colon
A498 renal = test system: A498 renal
NCI-H226 lung = test system: NCI-H226 lung
SK-MEL-2 melanoma = test system: SK-MEL-2 melanoma
DU-145 prostate = test system: DU-145 prostate
A549 NSCLC = test system: A549 NSCLC
CAKI-1 renal = test system: CAKI-1 renal
SR leukemia = test system: SR leukemia
HL-60(TB) leukemia = test system: HL-60(TB) leukemia
NCI-H23 lung = test system: NCI-H23 lung
HOP-62 NSCLC = test system: HOP-62 NSCLC
SNB-19 CNS = test system: SNB-19 CNS
SK-MEL-5 melanoma = test system: SK-MEL-5 melanoma
LOX IMVI melanoma = test system: LOX IMVI melanoma
MDA-MB-231 breast = test system: MDA-MB-231 breast
MALME-3M melanoma = test system: MALME-3M melanoma
NCI/ADR-RES ovarian = test system: NCI/ADR-RES ovarian
SK-MEL-28 melanoma = test system: SK-MEL-28 melanoma
HS 578T breast = test system: HS 578T breast
IGROV1 ovarian = test system: IGROV1 ovarian
HT29 colon = test system: HT29 colon
786-0 renal = test system: 786-0 renal
OVCAR-8 ovarian = test system: OVCAR-8 ovarian
OVCAR-4 ovarian = test system: OVCAR-4 ovarian
UACC-62 melanoma = test system: UACC-62 melanoma
SK-OV-3 ovarian = test system: SK-OV-3 ovarian
HCC-2998 colon = test system: HCC-2998 colon
SW-620 colon = test system: SW-620 colon
SNB-75 CNS = test system: SNB-75 CNS
RPMI-8226 leukemia = test system: RPMI-8226 leukemia
HOP-92 NSCLC = test system: HOP-92 NSCLC
COLO 205 colon = test system: COLO 205 colon
SN12C renal = test system: SN12C renal
SF-268 CNS = test system: SF-268 CNS
NCI-H522 lung = test system: NCI-H522 lung
PC-3 prostate = test system: PC-3 prostate
UACC-257 melanoma = test system: UACC-257 melanoma
KM12 colon = test system: KM12 colon
MOLT-4 leukemia = test system: MOLT-4 leukemia
MDA-MB-435 = test system: MDA-MB-435
OVCAR-3 ovarian = test system: OVCAR-3 ovarian
ACHN renal = test system: ACHN renal
T-47D breast = test system: T-47D breast
UO-31 renal = test system: UO-31 renal
OVCAR-5 ovarian = test system: OVCAR-5 ovarian
MCF7 breast = test system: MCF7 breast
HCT-116 colon = test system: HCT-116 colon
M14 melanoma = test system: M14 melanoma
SF-295 CNS = test system: SF-295 CNS
BT-549 breast = test system: BT-549 breast
RXF 393 renal = test system: RXF 393 renal
U251 CNS = test system: U251 CNS
EKVX NSCLC = test system: EKVX NSCLC
SF-539 CNS = test system: SF-539 CNS

Cc1nn(-c2ccc(Cl)cc2)c2nc3c(nc12)C(=O)C(=O)c1ccccc1-3
GI50 (HCT-15 colon): 3.4 µM
TGI (HCT-15 colon): 16.8 µM
GI50 (A498 renal): 1.27 µM
TGI (A498 renal): 2.96 µM
GI50 (NCI-H226 lung): 7.65 µM
TGI (NCI-H226 lung): 30.1 µM
GI50 (SK-MEL-2 melanoma): 4.71 µM
TGI (SK-MEL-2 melanoma): 16.2 µM
GI50 (DU-145 prostate): 1.98 µM
TGI (DU-145 prostate): 3.57 µM
GI50 (A549 NSCLC): 2.06 µM
TGI (A549 NSCLC): 4.08 µM
GI50 (CAKI-1 renal): 7.93 µM
TGI (CAKI-1 renal): > 100 µM
GI50 (SR leukemia): 7.28 µM
TGI (SR leukemia): > 100 µM
GI50 (HL-60(TB) leukemia): 4.32 µM
TGI (HL-60(TB) leukemia): > 100 µM
GI50 (NCI-H23 lung): 1.71 µM
TGI (NCI-H23 lung): 3.88 µM
GI50 (HOP-62 NSCLC): 9.71 µM
TGI (HOP-62 NSCLC): 30.4 µM
GI50 (SNB-19 CNS): 2.48 µM
TGI (SNB-19 CNS): 8.17 µM
GI50 (SK-MEL-5 melanoma): 4.94 µM
TGI (SK-MEL-5 melanoma): 24.1 µM
GI50 (LOX IMVI melanoma): 2.08 µM
TGI (LOX IMVI melanoma): 5.89 µM
GI50 (MDA-MB-231 breast): 4.31 µM
TGI (MDA-MB-231 breast): 66.3 µM
GI50 (MALME-3M melanoma): 1.43 µM
TGI (MALME-3M melanoma): 3.86 µM
GI50 (NCI/ADR-RES ovarian): 3.92 µM
TGI (NCI/ADR-RES ovarian): > 100 µM
GI50 (SK-MEL-28 melanoma): 7.76 µM
TGI (SK-MEL-28 melanoma): 74.8 µM
GI50 (HS 578T breast): 2.08 µM
TGI (HS 578T breast): 5.5 µM
GI50 (IGROV1 ovarian): 5.46 µM
TGI (IGROV1 ovarian): 47.3 µM
GI50 (HT29 colon): 2.01 µM
TGI (HT29 colon): 3.99 µM
GI50 (786-0 renal): 5.39 µM
TGI (786-0 renal): 25.9 µM
GI50 (OVCAR-8 ovarian): 21.7 µM
TGI (OVCAR-8 ovarian): > 100 µM
GI50 (OVCAR-4 ovarian): 6.08 µM
TGI (OVCAR-4 ovarian): > 100 µM
GI50 (UACC-62 melanoma): 8.45 µM
TGI (UACC-62 melanoma): 34.4 µM
GI50 (SK-OV-3 ovarian): > 100 µM
TGI (SK-OV-3 ovarian): > 100 µM
GI50 (HCC-2998 colon): 1.74 µM
TGI (HCC-2998 colon): 3.79 µM
GI50 (SW-620 colon): 3.25 µM
TGI (SW-620 colon): 20.9 µM
GI50 (SNB-75 CNS): 1.66 µM
TGI (SNB-75 CNS): 4.3 µM
GI50 (RPMI-8226 leukemia): 5.65 µM
TGI (RPMI-8226 leukemia): > 100 µM
GI50 (HOP-92 NSCLC): 0.18 µM
TGI (HOP-92 NSCLC): 30.8 µM
GI50 (COLO 205 colon): 2.03 µM
TGI (COLO 205 colon): 4.86 µM
GI50 (SN12C renal): 2.7 µM
TGI (SN12C renal): 12.6 µM
GI50 (SF-268 CNS): 12.4 µM
TGI (SF-268 CNS): > 100 µM
GI50 (NCI-H522 lung): 2.96 µM
TGI (NCI-H522 lung): 6.57 µM
GI50 (PC-3 prostate): 2.31 µM
TGI (PC-3 prostate): > 100 µM
GI50 (UACC-257 melanoma): 3.24 µM
TGI (UACC-257 melanoma): 11.9 µM
GI50 (KM12 colon): 3.76 µM
TGI (KM12 colon): 15.6 µM
GI50 (MOLT-4 leukemia): > 100 µM
TGI (MOLT-4 leukemia): > 100 µM
GI50 (MDA-MB-435): 6.31 µM
TGI (MDA-MB-435): > 100 µM
GI50 (OVCAR-3 ovarian): 3.48 µM
TGI (OVCAR-3 ovarian): > 100 µM
GI50 (ACHN renal): 19.5 µM
TGI (ACHN renal): > 100 µM
GI50 (T-47D breast): 12.1 µM
TGI (T-47D breast): 29.9 µM
GI50 (UO-31 renal): 1.82 µM
TGI (UO-31 renal): 7.14 µM
GI50 (OVCAR-5 ovarian): 12 µM
TGI (OVCAR-5 ovarian): > 100 µM
GI50 (MCF7 breast): 27.9 µM
TGI (MCF7 breast): > 100 µM
GI50 (HCT-116 colon): 7.42 µM
TGI (HCT-116 colon): 32.8 µM
GI50 (M14 melanoma): 1.89 µM
TGI (M14 melanoma): 4.1 µM
GI50 (SF-295 CNS): 1.72 µM
TGI (SF-295 CNS): 3.43 µM
GI50 (BT-549 breast): 1.57 µM
TGI (BT-549 breast): 4.76 µM
GI50 (RXF 393 renal): 19.7 µM
TGI (RXF 393 renal): 64.6 µM
GI50 (U251 CNS): 3.21 µM
TGI (U251 CNS): 10.1 µM
GI50 (EKVX NSCLC): 7.36 µM
TGI (EKVX NSCLC): > 100 µM
GI50 (SF-539 CNS): 3.14 µM
TGI (SF-539 CNS): 9.3 µM
